Where two headings read alike, the source gives them in different places.
Tests used:
[1] = molecular target: wild-type Drosophila melanogaster EcR (DmEcR; GAL4-EcR DEF with VP16-RXR-USP chimera) (Drosophila melanogaster, UniProt P34021); experiment: Two-hybrid gene switch assay, luciferase reporter, wild-type DmEcR, mouse NIH3T3 cells; format: cell-based
[2] = test system: NcEcR (GAL4-EcR DEF with VP16-RXR partner); experiment: Two-hybrid gene switch assay, luciferase reporter, NcEcR, mouse NIH3T3 cells
[3] = molecular target: wild-type Aedes aegypti EcR (AaEcR; GAL4-EcR DEF with VP16-RXR-USP chimera) (Aedes aegypti, UniProt P49880); experiment: Two-hybrid gene switch assay, luciferase reporter, wild-type AaEcR, mouse NIH3T3 cells; format: cell-based
Chain of wild-type Aedes aegypti EcR (AaEcR; GAL4-EcR DEF with VP16-RXR-USP chimera) (P49880 with tags, fused parts or gaps limits assumed, change not shown): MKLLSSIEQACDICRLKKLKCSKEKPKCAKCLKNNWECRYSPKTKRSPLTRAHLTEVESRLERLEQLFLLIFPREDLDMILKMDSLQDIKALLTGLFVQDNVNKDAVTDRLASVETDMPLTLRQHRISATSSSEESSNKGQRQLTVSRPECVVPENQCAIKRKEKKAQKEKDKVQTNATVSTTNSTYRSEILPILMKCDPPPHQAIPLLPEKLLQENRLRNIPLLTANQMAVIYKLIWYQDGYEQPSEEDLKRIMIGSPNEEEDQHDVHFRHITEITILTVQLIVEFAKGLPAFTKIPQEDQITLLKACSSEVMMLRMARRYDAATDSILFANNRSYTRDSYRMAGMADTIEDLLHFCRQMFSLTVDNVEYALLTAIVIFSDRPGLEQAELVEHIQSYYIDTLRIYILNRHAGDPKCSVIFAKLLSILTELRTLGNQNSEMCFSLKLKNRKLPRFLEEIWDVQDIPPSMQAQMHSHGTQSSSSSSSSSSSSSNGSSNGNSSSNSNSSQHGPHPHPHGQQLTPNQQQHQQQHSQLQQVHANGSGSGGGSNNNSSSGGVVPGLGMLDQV

[4] = molecular target: T1, TmEcR (GAL4-EcR DEF with VP16-RXR partner) (Tenebrio molitor, UniProt O02035); experiment: Two-hybrid gene switch assay, luciferase reporter, TmEcR, mouse NIH3T3 cells
T1 sequence (O02035 194-491): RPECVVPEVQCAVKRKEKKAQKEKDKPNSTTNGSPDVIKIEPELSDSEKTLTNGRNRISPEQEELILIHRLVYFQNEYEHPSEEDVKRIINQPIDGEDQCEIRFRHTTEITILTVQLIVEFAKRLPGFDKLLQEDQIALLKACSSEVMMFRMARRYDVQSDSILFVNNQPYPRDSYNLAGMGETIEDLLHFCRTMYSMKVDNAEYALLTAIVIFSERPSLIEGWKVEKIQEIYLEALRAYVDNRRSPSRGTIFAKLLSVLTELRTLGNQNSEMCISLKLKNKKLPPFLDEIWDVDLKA
T1 sequence (P28704 1-520 partner): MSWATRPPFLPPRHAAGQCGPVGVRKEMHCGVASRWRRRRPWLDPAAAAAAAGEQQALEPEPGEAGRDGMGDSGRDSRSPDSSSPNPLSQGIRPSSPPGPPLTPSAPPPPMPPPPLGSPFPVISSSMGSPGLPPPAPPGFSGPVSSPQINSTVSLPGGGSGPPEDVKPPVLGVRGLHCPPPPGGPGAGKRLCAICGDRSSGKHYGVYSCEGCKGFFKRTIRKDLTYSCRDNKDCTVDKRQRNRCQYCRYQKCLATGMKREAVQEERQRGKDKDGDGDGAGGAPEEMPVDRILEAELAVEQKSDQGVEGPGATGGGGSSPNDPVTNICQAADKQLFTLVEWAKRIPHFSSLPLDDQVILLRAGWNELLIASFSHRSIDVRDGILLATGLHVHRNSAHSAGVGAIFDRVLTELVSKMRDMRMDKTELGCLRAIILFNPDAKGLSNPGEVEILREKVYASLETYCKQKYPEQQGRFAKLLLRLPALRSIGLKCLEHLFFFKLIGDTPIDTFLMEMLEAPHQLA

[5] = molecular target: T2, BaEcR (GAL4-EcR DEF with VP16-RXR-USP chimera) (Bemisia tabaci, UniProt A0A6M3RDR8); experiment: Two-hybrid gene switch assay, luciferase reporter, BaEcR, mouse NIH3T3 cells; details: EC50, FIG. 14A/14B, GAL4-EcR(DEF) with VP16-RXR-USP chimera
T2 sequence (A0A6M3RDR8 115-530): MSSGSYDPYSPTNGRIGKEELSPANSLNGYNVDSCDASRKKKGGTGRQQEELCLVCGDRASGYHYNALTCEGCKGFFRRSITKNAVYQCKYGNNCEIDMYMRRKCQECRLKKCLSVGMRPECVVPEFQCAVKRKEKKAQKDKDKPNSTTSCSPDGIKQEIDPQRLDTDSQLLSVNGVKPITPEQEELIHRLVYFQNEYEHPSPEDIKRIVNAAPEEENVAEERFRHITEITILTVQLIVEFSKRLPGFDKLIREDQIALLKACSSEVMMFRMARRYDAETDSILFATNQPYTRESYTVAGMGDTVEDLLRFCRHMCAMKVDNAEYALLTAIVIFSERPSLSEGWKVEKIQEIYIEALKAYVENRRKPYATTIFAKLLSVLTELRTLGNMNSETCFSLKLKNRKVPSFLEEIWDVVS
T2 sequence (P28702 1-533 partner): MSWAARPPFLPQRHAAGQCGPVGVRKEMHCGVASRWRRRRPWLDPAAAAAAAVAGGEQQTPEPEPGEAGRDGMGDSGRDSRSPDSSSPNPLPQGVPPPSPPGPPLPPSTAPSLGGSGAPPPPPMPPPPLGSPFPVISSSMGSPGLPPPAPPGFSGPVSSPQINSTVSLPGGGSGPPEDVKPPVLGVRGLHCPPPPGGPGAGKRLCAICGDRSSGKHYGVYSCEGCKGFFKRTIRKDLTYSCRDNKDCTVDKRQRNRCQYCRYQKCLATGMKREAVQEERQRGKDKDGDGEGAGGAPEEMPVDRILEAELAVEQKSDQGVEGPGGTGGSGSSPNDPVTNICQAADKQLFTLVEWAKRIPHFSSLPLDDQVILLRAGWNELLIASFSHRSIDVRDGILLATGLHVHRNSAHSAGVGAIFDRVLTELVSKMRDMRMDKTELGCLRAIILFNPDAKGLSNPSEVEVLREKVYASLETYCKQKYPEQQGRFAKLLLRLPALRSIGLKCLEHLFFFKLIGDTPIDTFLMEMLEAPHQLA

[6] = molecular target: T3, wild-type CfEcR (GAL4-CfEcR-DEF with VP16-RXR-USP chimera) (Choristoneura fumiferana, UniProt O77255); experiment: Two-hybrid gene switch assay, luciferase reporter, wild-type CfEcR, mouse NIH3T3 cells
T3 sequence (O77255 219-541): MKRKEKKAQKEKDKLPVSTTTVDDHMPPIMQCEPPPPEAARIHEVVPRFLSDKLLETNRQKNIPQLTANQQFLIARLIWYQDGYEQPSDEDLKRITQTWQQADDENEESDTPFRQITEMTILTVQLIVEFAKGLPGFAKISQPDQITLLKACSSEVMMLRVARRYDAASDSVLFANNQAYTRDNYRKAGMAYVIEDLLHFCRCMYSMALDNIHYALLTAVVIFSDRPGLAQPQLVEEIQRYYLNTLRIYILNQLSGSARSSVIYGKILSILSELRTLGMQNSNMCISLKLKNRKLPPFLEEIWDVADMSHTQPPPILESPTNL
T3 sequence (P28702 1-533 partner): T2 sequence (P28702 1-533 partner)

[7] = EC50, FIG. 14A/14B, GAL4-EcR(DEF) with VP16-RXR-USP chimera
[8] = FIG. 14A/14B, GAL4-EcR(DEF) with VP16-RXR-USP chimera, read-out: EC50
[9] = EC50, FIG. 14A/14B, GAL4-EcR(DEF)
[10] = EC50, FIG. 16, GAL4-EcR (DEF) / VP16-RXR-USP chimera

Chain of wild-type Drosophila melanogaster EcR (DmEcR; GAL4-EcR DEF with VP16-RXR-USP chimera) (P34021 with tags, fused parts or gaps limits assumed): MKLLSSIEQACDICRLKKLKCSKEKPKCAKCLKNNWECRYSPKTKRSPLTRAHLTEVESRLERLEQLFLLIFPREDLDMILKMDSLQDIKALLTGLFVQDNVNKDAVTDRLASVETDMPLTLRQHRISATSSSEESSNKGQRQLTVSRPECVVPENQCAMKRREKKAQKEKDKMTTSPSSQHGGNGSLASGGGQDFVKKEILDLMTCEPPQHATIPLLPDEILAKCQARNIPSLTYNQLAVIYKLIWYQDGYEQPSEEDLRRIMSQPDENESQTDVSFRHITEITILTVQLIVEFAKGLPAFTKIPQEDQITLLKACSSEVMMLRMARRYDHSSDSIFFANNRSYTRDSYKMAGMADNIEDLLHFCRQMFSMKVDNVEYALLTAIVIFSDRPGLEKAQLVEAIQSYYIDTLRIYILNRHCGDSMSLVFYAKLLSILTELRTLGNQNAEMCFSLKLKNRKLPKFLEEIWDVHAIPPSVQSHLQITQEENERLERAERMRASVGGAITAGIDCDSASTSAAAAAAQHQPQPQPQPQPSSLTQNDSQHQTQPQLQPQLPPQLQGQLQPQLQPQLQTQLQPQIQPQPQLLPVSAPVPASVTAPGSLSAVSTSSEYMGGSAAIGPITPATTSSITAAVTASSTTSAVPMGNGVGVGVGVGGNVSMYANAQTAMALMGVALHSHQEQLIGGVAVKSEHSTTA

SMILES	EC50 [1, 7]	EC50 ([2]; FIG. 14A/14B, GAL4-EcR(DEF))	EC50 [3, 8]	EC50 [4, 9]	EC50 [5]	EC50 [6]	EC50 [1, 10]	EC50 ([2]; FIG. 16, GAL4-EcR (DEF))	EC50 [3, 7]	EC50 [3, 10]	EC50 ([4]; EC50, FIG. 16, GAL4-EcR (DEF))
CC(C)(O)CC[C@@H](O)[C@](C)(O)[C@H]1CC[C@@]2(O)C3=CC(=O)[C@@H]4C[C@@H](O)[C@@H](O)[C@@H](O)[C@]4(C)[C@H]3CC[C@]12C [integristerone A]	> 33 µM	~2000 nM	~10 µM	~8 µM	~20 µM	> 33 µM					
CC(CC(O)C(C)(O)C1CCC2(O)C3=CC(=O)C4CC(O)C(O)CC4(C)C3CCC12C)C(C)(C)O (stereo not shown) [makisterone A]	~20 µM	117 nM	3.33 µM	~20 µM	~15 µM	> 33 µM					
CCC(CC(O)C(C)(O)C1CCC2(O)C3=CC(=O)C4CC(O)C(O)CC4(C)C3CCC12C)C(C)(C)O (stereo not shown) [makisterone C]	~5 µM	~100 nM	1.02 µM	~4 µM	~3.3 µM	> 33 µM					
CC(C)(O)CC[C@@H](O)[C@](C)(O)[C@H]1CC[C@@]2(O)C3=CC(=O)[C@]4(O)C[C@@H](O)[C@@H](O)C[C@]4(C)[C@H]3CC[C@]12C [polypodine B]	~2 µM	~100 nM		~10 µM	~3.3 µM	~20 µM	2.54 µM	50 nM	0.173 µM	0.05 µM	~3 µM
CC(C)=CC[C@@H](O)[C@](C)(O)[C@H]1CC[C@@]2(O)C3=CC(=O)[C@@H]4C[C@@H](O)[C@@H](O)C[C@]4(C)[C@H]3CC[C@]12C [stachysterone C]	0.385 µM	13 nM		1.47 µM	0.658 µM	~10 µM			0.044 µM		
CCCCCC(=O)OC1CC2(C)C(C(C)(O)C(O)CCC(C)(C)O)CCC2(O)C2=CC(=O)C3CC(O)C(O)CC3(C)C21 (stereo not shown) [turkesterone-11 a -hexanoate]	> 33 µM	~7000 nM		> 33 µM	> 33 µM	> 33 µM			~12 µM		
CCC(=O)OC1CC2(C)C(C(C)(O)C(O)CCC(C)(C)O)CCC2(O)C2=CC(=O)C3CC(O)C(O)CC3(C)C21 (stereo not shown) [turkesterone-11 a -propionate]	> 33 µM	~10000 nM		> 33 µM	> 33 µM	> 33 µM			~15 µM		
CCCCCCCCCC(=O)OC1CC2(C)C(C(C)(O)C(O)CCC(C)(C)O)CCC2(O)C2=CC(=O)C3CC(O)C(O)CC3(C)C21 (stereo not shown) [turkesterone-11a-decanoate]	> 33 µM	> 33000 nM		> 33 µM	> 33 µM	> 33 µM			> 33 µM		
CC(C)(O)CC[C@@H](O)[C@](C)(O)[C@H]1CC[C@@]2(O)C3=CC(=O)[C@@H]4C[C@@H](O)[C@@H](O)C[C@]4(C)[C@H]3[C@H](O)C[C@]12C [turkesterone]	~15 µM	1350 nM		> 33 µM	~20 µM	> 33 µM			3.37 µM		

Source: patent publication US8536354B2, “Steroidal ligands and their use in gene switch modulation” (Intrexon Corporation, priority 2008, dated 2013)
